Legend:
[1] = system: HL-60 cells (human leukemia cells); experiment: Apoptosis induction in HL-60 cells, propidium iodide (Example 9); type: cell-based; settings: 20 μM, incubation for 6 hours; control 9.3
Experimental: HL-60 cells (human leukemia cells) were suspended in an RPMI-1640 with 10% fetal bovine serum added thereto, and the number of cells was counted. The suspension was adjusted to have a density of 5×10^5 cells/mL. Each 2 mL of the suspension was dispensed into Petri dishes. SBS prepared in Preparation Example 3 was diluted with dimethyl sulfoxide to 2 mM, and each 20 μL of the suspension was added thereto to have a final concentration of 20 μM. Only dimethyl sulfoxide was added to a control. Incubation was performed for 6 hours under the conditions of 37° C. and 5% CO2, and the cells were recovered, and washed with a phosphate buffered saline (PBS) by centrifugation. Four-percent paraformaldehyde was added to the cells, and the cells were allowed to stand at room temperature for 30 minutes to be fixed. After centrifugation, the supernatant was removed, and a PBS was added thereto, and the mixture was centrifuged and washed, and the cells were suspended in 200 μL of a PBS. Five-hundred microliters of 0.05 mg/mL propidium iodide was added thereto, and the mixture was incubated at 4° C. for 10 minutes. Thereafter, the number of whole cells and the number of cells which had undergone apoptosis were measured, and a ratio of induction of apoptosis was calculated according to the following equation (Table 11). […]

[2] = system: IMC carcinoma tumor cells; experiment: IMC solid tumor growth in CDF1 mice, SBS orally (Example 10); type: in vivo; settings: about 15.6 mg/kg/day orally in peanut oil with 10% ethanol; three weeks after transplantation of IMC
Description: As ICR mice (Japan SLC, Inc.), 5-week old female mice were purchased, and the animals were used at 6 weeks old. Sarcoma-180 (hereinafter, S-180) tumor cells were transplanted into an abdominal cavity of the ICR mice to give an ascites, and the ascites was passaged by transplanting into other mice every 7 days. An ascites on day 7 after passage was collected, washed with a phosphate buffered saline by centrifugation, and suspended in the same buffer. The number of cells was counted, and the suspension was adjusted to have a density of 5×10^7 cells/mL. Into ICR mice at right abdominal part was subcutaneously transplanted 0.1 mL of the cell suspension, and the size of a solid tumor after 7 days was measured. […] The size of the tumor was measured after four weeks from transplantation of S-180. In addition, as the size of the tumor, a length and a width were measured, to obtain the volume according to the following equation, followed by comparison. […]
The tumor-suppressing activity was calculated according to the following equation. […]
As CDF1 mice (Japan SLC, Inc.), 6-week old female mice were purchased, and the animals were used at 7 weeks olds. […] The number of cells was counted. […] Seven days after transplantation, take of a tumor was confirmed, and the size of a solid tumor was measured. […]

[3] = Toxicity on oral administration to mice; type: in vivo; settings: orally administered, 25 mg/mouse/day

## C=CC(C)(O)CC/C=C(\C)CCCC(C)(O)CCCC(C)(O)CCCC(C)(O)CCCC(C)(O)CCCC(C)(O)CCCC(C)(O)CCC=C(C)C (stereo not shown) [SBS, hypsiziprenol A9]
[1]
  Apoptosis-Inducing Ratio (%): 30.1%
[2]
  Tumor Volume (Mean ± SD): 534.5 ± 92.3 mm^3
  Tumor-Suppressing Activity (%): 46.2%
[3]
  toxicity: toxicity is not observed

— patent publication US20080038289A1, “Antitumor Agent” (priority 2004, published 2008)
